Results taken from patent US20260049104A1, “PEPTIDES WITH ANTIMICROBIAL PROPERTIES” (priority 2022, published 2026).
Values after ≈ are worked out from the molar mass of the structure shown. Read-outs that look alike come from different tables or passages of the source.

Key:
Pseudomonas aeruginosa = type: cell-based; conditions: for MIC value: Table 15, unit inferred
Excerpt: (§1) The experiments were repeated three times.

Enterococcus faecalis = type: cell-based; conditions: strain not given, Table 14, preliminary screening
Protocol: MIC values for compounds (1-11) were assessed using 96-well plate format with Mueller Hinton (MH) broth, using the two-fold dilution method, previously reported in standard methods provided by Clinical and Laboratory Standards S8 Institute (CLSI). Kanamycin and ampicillin were used as antibacterial control agents. According to the reference, the compounds (1-11) were first dissolved in DMSO+0.1% TFA at a concentration of 3.2 mg/mL and 4 μL was serially diluted in 96 μL of MH broth. Then, sequential 2-fold serial dilutions of the mix were diluted in 50 μL MH broth and 50 μL cell cultures were added to wells. […] All assays were carried out in triplicate.

Acinetobacter baumannii = conditions: for MIC value: Table 15, unit inferred
Protocol: (§2) MIC screening of the peptides against a panel of ATCC and clinical strains was performed using broth microdilution method.^1 Briefly, peptides stock solutions in DMSO (0.1/G TFA) were diluted into Mueller Hinton Broth (MHB), followed by two-fold serial dilution in a 96-well plate. Bacteria culture in mid-log phase was diluted into MHB to yield […] colony-forming units (CFU)/mL. Equal volume of the starting inoculum was added to the peptide samples, then incubated for 18-20 h (37° C., 120 rpm). OD600 of the samples was then measured using Tecan Infinite M200 (TECAN, Männedorf, Switzerland). MIC is defined as the lowest peptide concentration to achieve more than 90% reduction in OD600 relative to the drug-free control. The experiments were repeated three times. Colistin-resistant clinical isolates are a kind gift from Dr. Jeanette Koh (National University Hospital, Singapore). Multidrug-resistant clinical isolates are a kind gift from Dr. Lakshminarayanan Rajamani (Singapore Eye Research Institute, Singapore).
(§3) Kanamycin and ampicillin were used as antibacterial control agents. […] Then, sequential 2-fold serial dilutions of the mix were diluted in 50 μL MH broth and 50 μL cell cultures were added to wells. […] All assays were carried out in triplicate.

Enterobacter cloacae = conditions: for MIC value: Table 15, unit inferred
Protocol: as §2, §3

Escherichia coli = conditions: for MIC value: Table 15, unit inferred
Protocol: as §2, §3

[1] = system: Gram-positive and Gram-negative bacteria; conditions: E. coli, E. cloacae, A. baumannii and K. pneumoniae
Protocol: as §2, §3

Klebsiella pneumoniae = conditions: for MIC value: Table 15, unit inferred
Protocol: as §2, §3

Staphylococcus aureus = system: Staphylococcus aureus
Protocol: as §2, §3

Bacillus subtilis = type: cell-based; conditions: Bacillus subtilis ATCC 6633
Excerpt: as §1

Morganella morganii = type: cell-based
Excerpt: as §1

Bacillus cereus = Bacillus cereus ATCC 11778
Protocol: as §2

Enterobacteriaceae = system: Enterobacteriaceae
Protocol: as §2

Salmonella entereditis = Salmonella entereditis ATCC 13076
Protocol: as §2

Salmonella typhimurium = Salmonella typhimurium ATCC 14028
Protocol: as §2

Shigella flexneri = Shigella flexneri M90T
Protocol: as §2

E. coli M6 [2] = conditions: E. coli M6, over 24 h
Protocol: Peptides stock solutions were diluted into MHB to desired concentrations. Bacteria culture in mid-log phase was diluted into MHB to yield 10^6 CFU/mL. The mixture was incubated at 37° C. with shaking. At each time point, 10 μL of the sample was drawn out and subjected to ten-fold serial dilution. 20 μL of relevant dilutions was dropped onto MHA plate using the drop plate method. The plate was incubated for 18-20 h at 37° C. Colony number was counted, and used for calculating the CFU/mL according to the equation:
CFU/mL=Colony count×50×dilution factor

E. coli M6 [3] = system: E. coli M6
Protocol: Resistance development of E. coli M6 against xenorceptide A2 was assessed by serial passaging of the bacteria in broth containing subinhibitory concentrations of the peptide. In brief, bacteria culture at mid-log phase was diluted to 10^5-10^6 CFU/mL in MHB containing 0.25×, 0.5×, 1×, 2×, and 4×MIC of the peptide. […] A new set of peptide concentration range was added to the cultures based on the latest MIC. This process was repeated over 14 days for three independent starting cultures.

E. coli M6 [4] = system: E. coli M6; remark: listed apart in the source
Protocol: Female C57BL/6NTac mice aged 6-8 weeks were acquired from InVivos Pte Ltd (Singapore, Singapore). Solutions for injections were prepared fresh in pharmaceutical grade saline and filter-sterilized. Murine peritonitis model was established according to literature. Briefly, healthy mice were rendered neutropenic by administering i.p. injection (0.5 mL) of cyclophosphamide on day −4 (150 mg/kg) and day −1 (100 mg/kg). On day 0, mice were infected with E. coli M6 (10^9 CFU/mL) through i.p. injection (0.1 mL). […] At 2 h post-treatment, mice were humanely euthanized by carbon dioxide asphyxiation and cervical dislocation. Sterile PBS (3 mL) was injected into the peritoneal cavity, followed by abdominal massage and collection of peritoneal fluid (1-2 mL). Blood (0.3-0.5 mL) was collected through cardiac puncture. Liver, spleen, and kidney were surgically removed and stored in 0.1% Triton X-100 (in PBS). Tissue homogenization was performed using gentleMACS dissociator (Miltenyi Biotec, Germany) by following a published protocol. Cell aggregates were removed using a 30 μm mesh MACS SmartStrainer (Miltenyi Biotec). Blood, peritoneal fluid, and tissue homogenates were plated on LB agar and incubated overnight for colony counting.

[5] = Pseudomonas aeruginosa DR4877/07
[6] = Pseudomonas aeruginosa DR5790/07
[7] = Klebsiella pneumoniae ATCC 700603
[8] = E. coli M6, sub-inhibitory concentrations, over two weeks
[9] = 50 mg/kg single i.p. dose, 5 h post-treatment, neutropenic mice infected with E. coli M6

For `CC(C)[C@@H]1NC(=O)[C@@H](NC(=O)CNC(=O)[C@H](CCC(=O)O)NC(=O)CNC(=O)[C@@H](N)CCCNC(=N)N)Cc2c[nH]c3cc(ccc23)C(CCNC(=N)N)[C@@H](C(=O)N[C@@H](C)C(=O)N[C@@H](Cc2ccc(O)cc2)C(=O)N[C@H]2Cc3c[nH]c4cc(ccc34)C(CCCN)[C@@H](C(=O)N[C@@H](CCCNC(=N)N)C(=O)N[C@@H](Cc3ccccc3)C(=O)O)NC(=O)[C@H](C)NC2=O)NC1=O` (stereo partly shown) [Compound 24, xenorceptide D1], the MIC value (Pseudomonas aeruginosa; Pseudomonas aeruginosa DM4150R) was 32 µg/mL (≈ 18 µM), the MIC value (Pseudomonas aeruginosa; Pseudomonas aeruginosa DM23376) was 16 µg/mL (≈ 9 µM) and the MIC value (Pseudomonas aeruginosa; [5]) was 16 µg/mL (≈ 9 µM). For the same compound, the MIC value (Pseudomonas aeruginosa; [6]) was 16 µg/mL (≈ 9 µM), the MIC (Enterococcus faecalis) was 64 µg/mL (≈ 36 µM) and the MIC value (Acinetobacter baumannii; Acinetobacter baumanii ACβA1001) was 4 µg/mL (≈ 2.25 µM). For the same compound, the MIC value (Acinetobacter baumannii; Acinetobacter baumanii ACβA1002) was 4 µg/mL (≈ 2.25 µM), the MIC value (Acinetobacter baumannii; Acinetobacter baumanii ACβA1003) was 4 µg/mL (≈ 2.25 µM) and the MIC value (Acinetobacter baumannii; Acinetobacter baumanii ACβA1004) was 4 µg/mL (≈ 2.25 µM). For the same compound, the MIC (Acinetobacter baumannii; Acinetobacter baumanii ATCC 19606, Table 14, preliminary screening) was 2 µg/mL (≈ 1.12 µM), the MIC value (Acinetobacter baumannii; Acinetobacter baumanii ATCC 19606) was 2 µg/mL (≈ 1.12 µM) and the MIC value (Enterobacter cloacae; Enterobacter cloacae ATCC 13047) was 4 µg/mL (≈ 2.25 µM). For the same compound, the MIC value (Enterobacter cloacae; Enterobacter cloacae CRE1010) was 4 µg/mL (≈ 2.25 µM), the MIC value (Enterobacter cloacae; Enterobacter cloacae CRE1014) was 8 µg/mL (≈ 4.5 µM) and the MIC value (Enterobacter cloacae; Enterobacter cloacae CRE1015) was 8 µg/mL (≈ 4.5 µM). The MIC value (Enterobacter cloacae; Enterobacter cloacae CRE1016) was 8 µg/mL (≈ 4.5 µM), the MIC value (Enterobacter cloacae; Enterobacter cloacae CRE1017) was 8 µg/mL (≈ 4.5 µM) and the MIC (Enterobacter cloacae; Enterobacter cloacae, strain not given, Table 14, preliminary screening) was 4 µg/mL (≈ 2.25 µM). For the same compound, the MIC (Escherichia coli; Escherichia coli ATCC 25922, Table 14, preliminary screening) was 1 µg/mL (≈ 0.562 µM), the MIC value (Escherichia coli; Escherichia coli M2) was 4 µg/mL (≈ 2.25 µM) and the MIC value (Escherichia coli; Escherichia coli M6) was 2 µg/mL (≈ 1.12 µM). The MIC value (Escherichia coli; Escherichia coli M10) was 2 µg/mL (≈ 1.12 µM), the MIC value (Escherichia coli; Escherichia coli M11) was 2 µg/mL (≈ 1.12 µM) and the MIC value range [1] was 1 to 4 µg/mL. The MIC value (Klebsiella pneumoniae; ATCC 25922, printed under Klebsiella pneumoniae) was 1 µg/mL (≈ 0.562 µM), the MIC value (Klebsiella pneumoniae; CRE1006, Klebsiella pneumoniae) was 2 µg/mL (≈ 1.12 µM) and the MIC (Klebsiella pneumoniae; Klebsiella pneumoniae ATC 700603, Table 14, preliminary screening) was 2 µg/mL (≈ 1.12 µM). The MIC value (Klebsiella pneumoniae; [7]) was 2 µg/mL (≈ 1.12 µM), the MIC value (Klebsiella pneumoniae; Klebsiella pneumoniae CRE 1007) was 4 µg/mL (≈ 2.25 µM) and the MIC value (Klebsiella pneumoniae; Klebsiella pneumoniae CRE1008) was 4 µg/mL (≈ 2.25 µM). The MIC value (Klebsiella pneumoniae; Klebsiella pneumoniae CRE1011) was 2 µg/mL (≈ 1.12 µM), the MIC value (Klebsiella pneumoniae; Klebsiella pneumoniae CRE1012) was 4 µg/mL (≈ 2.25 µM) and the MIC (Staphylococcus aureus; Staphylococcus aureus ATCC 29737, Table 14, preliminary screening) was greater than 64 µg/mL.

Compound `CC(C)[C@@H]1NC(=O)[C@@H](N)Cc2c[nH]c3cc(ccc23)[C@H](C(N)=O)[C@@H](C(=O)N[C@@H](C)C(=O)N[C@H]2Cc3cccc(c3)[C@H](CCNC(=N)N)[C@@H](C(=O)N[C@H]3Cc4c[nH]c5cc(ccc45)[C@H](CCCN)[C@@H](C(=O)N[C@@H](CO)C(=O)N[C@@H](Cc4ccccc4)C(=O)O)NC(=O)[C@H](CO)NC3=O)NC(=O)[C@H](C)NC2=O)NC1=O` [xenorceptide A2] has an MIC (Bacillus subtilis) greater than 64 µg/mL, an MIC (Morganella morganii; Morganella morganii ATCC 25830) of 32 µg/mL (≈ 21.4 µM) and an MIC (Morganella morganii; Morganella morganii CRE1001) of 32 µg/mL (≈ 21.4 µM). For the same compound, the MIC (Pseudomonas aeruginosa; Pseudomonas aeruginosa ATCC 9027) was 64 µg/mL (≈ 42.9 µM), the MIC (Pseudomonas aeruginosa; Pseudomonas aeruginosa DM4150R) was 64 µg/mL (≈ 42.9 µM) and the MIC (Pseudomonas aeruginosa; Pseudomonas aeruginosa DM23376) was greater than 64 µg/mL. It also gave an MIC (Pseudomonas aeruginosa; [5]) of 64 µg/mL (≈ 42.9 µM), an MIC (Pseudomonas aeruginosa; [6]) of 64 µg/mL (≈ 42.9 µM) and an MIC (Acinetobacter baumannii; Acinetobacter baumannii ACBA1001) of 32 µg/mL (≈ 21.4 µM). The MIC (Acinetobacter baumannii; Acinetobacter baumannii ACBA1002) was 32 µg/mL (≈ 21.4 µM), the MIC (Acinetobacter baumannii; Acinetobacter baumannii ACBA1003) was 32 µg/mL (≈ 21.4 µM) and the MIC (Acinetobacter baumannii; Acinetobacter baumannii ACBA1004) was 64 µg/mL (≈ 42.9 µM). The MIC (Acinetobacter baumannii; Acinetobacter baumannii ATCC 19606) was greater than 64 µg/mL, the MIC (Enterobacter cloacae; Enterobacter cloacae CRE1010) was 4 µg/mL (≈ 2.68 µM) and the MIC (Enterobacter cloacae; Enterobacter cloacae CRE1014) was 16 µg/mL (≈ 10.7 µM). The MIC (Enterobacter cloacae; Enterobacter cloacae CRE1015) was 32 µg/mL (≈ 21.4 µM), the MIC (Enterobacter cloacae; Enterobacter cloacae CRE1016) was 16 µg/mL (≈ 10.7 µM) and the MIC (Enterobacter cloacae; Enterobacter cloacae CRE1017) was 32 µg/mL (≈ 21.4 µM). It also gave an MIC (Escherichia coli; Escherichia coli ATCC 25922) of 4 µg/mL (≈ 2.68 µM), an MIC (Escherichia coli; Escherichia coli CRE1006, carbapenem-resistant clinical isolate) of 4 µg/mL (≈ 2.68 µM) and an MIC (Escherichia coli; Escherichia coli M6, carbapenem- and colistin-resistant clinical isolate) of 8 µg/mL (≈ 5.36 µM). It also gave an MIC (Escherichia coli; Escherichia coli M10, carbapenem- and colistin-resistant clinical isolate) of 4 µg/mL (≈ 2.68 µM), an MIC (Escherichia coli; Escherichia coli M11, carbapenem- and colistin-resistant clinical isolate) of 4 µg/mL (≈ 2.68 µM) and an MIC (Klebsiella pneumoniae; [7]) of 8 µg/mL (≈ 5.36 µM). For the same compound, the MIC (Klebsiella pneumoniae; Klebsiella pneumoniae CRE 1007) was 8 µg/mL (≈ 5.36 µM), the MIC (Klebsiella pneumoniae; Klebsiella pneumoniae CRE1008) was 8 µg/mL (≈ 5.36 µM) and the MIC (Klebsiella pneumoniae; Klebsiella pneumoniae CRE1011) was 8 µg/mL (≈ 5.36 µM). The MIC (Klebsiella pneumoniae; Klebsiella pneumoniae CRE1012) was 8 µg/mL (≈ 5.36 µM), the MIC (Staphylococcus aureus; Staphylococcus aureus ATCC 29737) was greater than 64 µg/mL and the MIC (Staphylococcus aureus; Staphylococcus aureus ATCC 43300) was greater than 64 µg/mL. The MIC (Bacillus cereus) was greater than 64 µg/mL, the “potency compared with dynobactin and darobactin” value (Enterobacteriaceae; against Enterobactericeae) was “more potent than dynobactin and has comparable potency to darobactin” and the MIC values (Enterobacteriaceae; several carbapenamase-resistant Enterobacteriaceae (CRE)) was 4 to 8 µg/mL. It also gave an MIC (Salmonella entereditis) of 8 µg/mL (≈ 5.36 µM), an MIC (Salmonella typhimurium) of 8 µg/mL (≈ 5.36 µM) and an MIC (Shigella flexneri) of 2 µg/mL (≈ 1.34 µM). For the same compound, the “bactericidal effect: reduction in bacteria count” value (E. coli M6 [2]; at 8×MIC) was 3 log, the “bactericidal effect: reduction in bacteria count” value (E. coli M6 [2]; at both 4× and 8×MIC) was 3 log and the “level at which resistance development halted” value (E. coli M6 [3]; E. coli) was 4 ×MIC. The “period over which resistance development occurred” value (E. coli M6 [3]; E. coli) was 6 to 8 days, the “MIC of strains obtained by serial passage” value (E. coli M6 [3]; [8]) was 32 µg/mL and the “resistance of strains obtained by serial passage” value (E. coli M6 [3]; [8]) was roughly 4 fold. For the same compound, the “cytotoxicity: concentration up to which no cytotoxicity was shown” value (HepG2 human cells) was greater than 256 µg/mL, the “decrease in colony count relative to saline control, blood” value (E. coli M6 [4]; [9]) was 7 log and the “decrease in colony count relative to saline control, liver” value (E. coli M6 [4]; [9]) was 4 log. The “decrease in colony count relative to saline control, peritoneal fluid” value (E. coli M6 [4]; [9]) was 6 log, the “reduction in bacteria burden, kidney” value (E. coli M6 [4]; [9]) was 2 log and the “reduction in bacteria burden, spleen” value (E. coli M6 [4]; [9]) was 2 log. For the same compound, the “in vivo efficacy compared with colistin” value (E. coli M6 [4]; both at 5 mg/kg, single i.p. dose) was “comparable efficacy to colistin”.
